The subject of the first assay is U937 cell line (human histiocytic lymphoma cell line). Put plainly: U937 cell viability assay (TNF-α + Z-VAD-FMK induced necroptosis). Format: cell-based. Particulars: Homo sapiens, U-937; U937 cells, hTNF-α 0.1 μg/mL + Z-VAD-FMK 50 μM, 20 hours, CellTiter-Glo. The method, boiled down:
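U937 cells (1.75×10^4/well, 1% FBS RPMI 1640) were preincubated 1 h with compound (0.0005–1.0 μM, 0.3% DMSO) and 50 μM Z-VAD-FMK, then stimulated with 0.1 μg/mL TNF-α for 20 h at 37 °C. Viability was read by CellTiter-Glo luminescence. Inhibition was normalised between TNF-α+Z-VAD and unstimulated wells, and IC50 was fitted.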
On the technique in general: ATP-based viability assays read luminescence as a measure of living cells.
Usually IC50 stands for the concentration that gives 50% inhibition. Take `CC(C)n1ncc2cnc(C(=O)NC3(c4ccc(-c5cnc(N)n(C)c5=O)cc4)CC3)nc21` [Compound 30]: the IC50 turned out to be 8 nM.
Still for that read-out and setting: as for `CC(C)n1ncc2cnc(C(=O)NC3(c4ccc(-c5cncn(CC6CC6)c5=O)c(F)c4F)CC3)nc21` [Compound 95], the figure is 3 nM; as for `CC(C)n1ncc2cnc(C(=O)NC3(c4ccc(-c5cncn(C)c5=O)cc4F)CC3)nc21` [Compound 26], 12 nM; as for `CC(C)n1ncc2cnc(C(=O)NC3(c4ccc(-c5cncn(C6CC6)c5=O)cc4)CC3)nc21` [Compound 12], 18 nM.
Still for that read-out and setting: with `CC(C)n1ncc2cnc(C(=O)NC3(c4ccc(-c5cncn(C6CCOC6)c5=O)cc4)CC3)nc21` (stereo in doubt) [Compound 81, (S)-1-i-propyl-N-(1-(4-(6-oxo-1-(tetrahydrofuran-3-yl)-1,6-dihydropyrimidin-5-yl)phenyl)cyclopropyl)-1H-pyrazolo[3,4-d]pyrimidine-6-carboxamide] the figure was 8 nM; with `CC(C)n1ncc2cnc(C(=O)NC3(c4ccc(-c5cncn(C6CCC6)c5=O)cc4)CC3)nc21` [Compound 42], 7 nM.
Same read-out and setting: as for `O=C(NC1(c2ccc(-c3cncn(CC4CC4)c3=O)cc2)CC1)c1ncc2cnn(CC3CC3)c2n1` [Compound 64], the figure is 2 nM; as for `CC(C)n1cncc(-c2ccc(C3(NC(=O)c4ncc5cnn([C@@H](C)C6CC6)c5n4)CC3)cc2)c1=O` [Compound 90, (S)-1-(1-cyclopropylethyl)-N-(1-(4-(1-i-propyl-6-oxo-1,6-dihydropyrimidin-5-yl)phenyl)cyclopropyl)-1H-pyrazolo[3,4-d]pyrimidine-6-carboxamide], 4 nM.
As for `CC(C#N)n1cncc(-c2ccc(C3(NC(=O)c4ncc5cnn(C(C)C)c5n4)CC3)cc2)c1=O` (stereo in doubt) [Compound 83, (S)—N-(1-(4-(1-(1-cyanoethyl)-6-oxo-1,6-dihydropyrimidin-5-yl)phenyl)cyclopropyl)-1-i-propyl-1H-pyrazolo[3,4-d]pyrimidine-6-carboxamide], the IC50 is 17 nM.
The same measure, in the same setting: with `CC(C)n1cncc(-c2ccc(C3(NC(=O)c4nc5n(n4)[C@H](c4ccccc4)CC5)CC3)cc2)c1=O` [Compound 16] the figure was 2 nM; with `CC(C)n1ncc2cnc(C(=O)NC3(c4ccc(-c5cncn([C@H](C)C6CC6)c5=O)cc4)CC3)nc21` [Compound 84, (R)—N-(1-(4-(1-(1-cyclopropylethyl)-6-oxo-1,6-dihydropyrimidin-5-yl)phenyl)cyclopropyl)-1-i-propyl-1H-pyrazolo[3,4-d]pyrimidine-6-carboxamide], 1 nM.
Take `Cn1cncc(-c2ccc(C3(NC(=O)c4ncc5cnn(-c6ccccc6)c5n4)CC3)cc2)c1=O` [Compound 4]: the IC50 came out at 17 nM.
Same read-out and setting: with `CC(C)n1ncc2cnc(C(=O)NC3(c4ccc(-c5cncn([C@H]6C[C@H](F)C6)c5=O)cc4)CC3)nc21` [Compound 87, N-(1-(4-(1-(trans-3-fluorocyclobutyl)-6-oxo-1,6-dihydropyrimidin-5-yl)phenyl)cyclopropyl)-1-i-propyl-1H-pyrazolo[3,4-d]pyrimidine-6-carboxamide] the figure was 11 nM.
The same measure, in the same setting: with `CC[C@@H](C)n1cncc(-c2ccc(C3(NC(=O)c4ncc5cnn(C(C)C)c5n4)CC3)cc2)c1=O` [Compound 44] the figure was 2 nM.
On the same count and under the same terms, as for `CC(C)n1ncc2cnc(C(=O)NC3(c4ccc(-c5cncn([C@H]6C[C@@H]6F)c5=O)cc4)CC3)nc21` [Compound 67], the figure is 91 nM; as for `CC(C)n1ncc2cnc(C(=O)NC3(c4ccc(-c5cncn(C6CCOC6)c5=O)cc4)CC3)nc21` (stereo in doubt) [Compound 80, (R)-1-i-propyl-N-(1-(4-(6-oxo-1-(tetrahydrofuran-3-yl)-1,6-dihydropyrimidin-5-yl)phenyl)cyclopropyl)-1H-pyrazolo[3,4-d]pyrimidine-6-carboxamide], 9 nM; as for `CC(C)n1cncc(-c2ccc(C3(NC(=O)c4ncc5cnn(-c6ccccc6)c5n4)CC3)cc2)c1=O` [Compound 19], 3 nM.
With `CC(C)n1ncc2cnc(C(=O)NC3(c4ccc(-c5cncn(CC6CC6)c5=O)c(F)c4)CC3)nc21` [Compound 75], the IC50 was determined as 2 nM.
The same measure, in the same setting: as for `CC(C)n1ncc2cnc(C(=O)NC3(c4cc(F)c(-c5cncn(CC6CC6)c5=O)cc4F)CC3)nc21` [Compound 94], the figure is 3 nM; as for `CC(C)n1ncc2cnc(C(=O)NC3(c4ccc(-c5cncn(C6CCOCC6)c5=O)cc4)CC3)nc21` [Compound 77], 10 nM.
On the same count and under the same terms, with `Cn1cncc(-c2ccc(C3(NC(=O)c4ncn(Cc5ccccc5)n4)CC3)cc2)c1=O` [Compound 8] the figure was 14 nM.
Same read-out and setting: with `CC(C)n1cncc(-c2ccc(C3(NC(=O)c4ncc5cnn(C(C)C)c5n4)CC3)c(F)c2F)c1=O` [Compound 93] the figure was 6 nM; with `CC(C)n1cncc(-c2ccc(C3(NC(=O)c4ncc5cnn(C(C)C)c5n4)CC3)c(F)c2Cl)c1=O` [Compound 91], 11 nM.
For the molecule `CC(C)n1ncc2cnc(C(=O)NC3(c4ccc(-c5cncn([C@@H](C)C(F)(F)F)c5=O)cc4)CC3)nc21` [Compound 40], the IC50 is 12 nM.
On the same count and under the same terms, with `CC(C)n1ncc2cnc(C(=O)NC3(c4ccc(-c5cncn([C@H](C)C(F)(F)F)c5=O)cc4F)CC3)nc21` (stereo in doubt) [Compound 46] the figure was 2 nM; with `C[C@H](c1ccccc1)n1cnc(C(=O)NC2(c3ccc(-c4cncn(C)c4=O)cc3)CC2)n1` [Compound 55, (R)—N-(1-(4-(1-methyl-6-oxo-1,6-dihydropyrimidin-5-yl)phenyl)cyclopropyl)-1-(1-phenylethyl)-1H-1,2,4-triazole-3-carboxamide], 7 nM.
Regarding `CC(C)n1cncc(-c2ccc(C3(NC(=O)c4ncc5cnn(C(C)C)c5n4)CC3)c(F)c2)c1=O` [Compound 34], the IC50 was determined as 7 nM.
For `CC(C)n1cncc(-c2ccc(C3(NC(=O)c4ncc5cnn(CC6CC6)c5n4)CC3)c(F)c2)c1=O` [Compound 72], the IC50 came out at 2 nM.
For `C[C@H](n1cncc(-c2ccc(C3(NC(=O)c4ncc5cnn(CC6CC6)c5n4)CC3)c(F)c2)c1=O)C(F)(F)F` [Compound 71], the IC50 is 3 nM.
Same read-out and setting: with `CC(C)n1cncc(-c2ccc(C3(NC(=O)c4ncn(Cc5ccccc5)n4)CC3)cc2)c1=O` [Compound 17] the figure was 1 nM.
The same measure, in the same setting: as for `CC(C)n1ncc2cnc(C(=O)NC3(c4ccc(-c5cncn(CC6(C)CC6)c5=O)cc4)CC3)nc21` [Compound 86], the figure is 1 nM; as for `CC(C)n1ncc2cnc(C(=O)NC3(c4ccc(-c5cncn([C@@H](C)C6CC6)c5=O)cc4)CC3)nc21` [Compound 85, (S)—N-(1-(4-(1-(1-cyclopropylethyl)-6-oxo-1,6-dihydropyrimidin-5-yl)phenyl)cyclopropyl)-1-i-propyl-1H-pyrazolo[3,4-d]pyrimidine-6-carboxamide], 2 nM.
Same read-out and setting: with `CC(C)n1ncc2cnc(C(=O)NC3(c4ccc(-c5cncn(C)c5=O)cc4)CC3)nc21` [Compound 1, 1-isopropyl-N-(1-(4-(1-methyl-6-oxo-1,6-dihydropyrimidin-5-yl)phenyl)cyclopropyl)-1H-pyrazolo[3,4-d]pyrimidine-6-carboxamide] the figure was 21 nM.
Regarding `CC(C)Cc1nc(C(=O)NC2(c3ccc(-c4cncn(C(C)C)c4=O)cc3)CC2)ncc1Cl` [Compound 22], the IC50 worked out at 3 nM.
On the same count and under the same terms, with `CC(C)n1cncc(-c2ccc(C3(NC(=O)c4nnc(Cc5ccccc5)o4)CC3)cc2)c1=O` [Compound 13] the figure was 4 nM; with `CC(C)n1cncc(-c2cc(F)c(C3(NC(=O)c4ncc5cnn(C(C)C)c5n4)CC3)c(F)c2)c1=O` [Compound 92], 100 nM; with `Cn1cncc(-c2ccc(C3(NC(=O)c4ncc(Cc5ccccc5)o4)CC3)cc2)c1=O` [Compound 10], 8 nM.
For the molecule `CC(C)n1cncc(-c2ccc(C3(NC(=O)c4ncc5cnn(CC6CC6)c5n4)CC3)cc2F)c1=O` [Compound 73], the IC50 turned out to be 2 nM.

Still in this assay, the particulars now being: U937 cells, hTNF-α 0.1 μg/mL + Z-VAD-FMK 50 μM, 20 hours, CellTiter-Glo.
With `CC(C)n1ncc2cnc(C(=O)NC3(c4ccc(-c5cncn([C@H]6C[C@@H](F)C6)c5=O)cc4)CC3)nc21` [Compound 88, N-(1-(4-(1-(cis-3-fluorocyclobutyl)-6-oxo-1,6-dihydropyrimidin-5-yl)phenyl)cyclopropyl)-1-i-propyl-1H-pyrazolo[3,4-d]pyrimidine-6-carboxamide], the IC50 was found to be 11 nM.

Source of the values: US20240002388A1, “PYRIMIDINONE COMPOUNDS AND USES THEREOF” (HUTCHISON MEDIPHARMA LIMITED, priority 2020, published 2024).
